In test [1] the test system is Hippocampal Cultures. Kind of test: Neuroprotection from glutamate excitotoxicity, propidium iodide cell death assay. The settings on record: Day 15 Hippocampal Cultures, 30 μM glutamate (FIG. 5). The test is classed as cell-based, rat.
The subject of test [2] is Hippocampal Cultures. Kind of test: Neuroprotection from glutamate excitotoxicity, CFDA neuronal viability assay. The test is classed as cell-based, rat. The settings on record: day 20 hippocampal cultures, 5 min 30 μM glutamate, CFDA assay 24 hours after initiation of treatment (FIG. 1-3). The procedure:
Pharmacology: Hydroxyethyl sulfamides attenuate glutamate-mediated neuronal viability. As an example, compound II, shown above, is shown to attenuate a decrease in carboxyfluorescein diacetate (CFDA) produced by acute treatment with glutamate in FIG. 1. For these studies, day 20 hippocampal cultures derived from E18 rats were treated for 5 min with 30 μM glutamate. Following removal of the glutamate, cultures were treated with various concentrations of compound II and the CFDA neuronal viability assay was conducted 24 hours after the initiation of treatment. The dotted line labeled “control” represents the mean CFDA value for control culture receiving no treatment. The dotted line labeled “carisbamate” represents the mean CFDA value for the reference compound carisbamate, a putative neuroprotective, anticonvulsant. For the CFDA measurements, RFU is the abbreviation for relative fluorescent units. The reference anticonvulsant compound carisbamate was tested at 100 μM, as lower concentrations were ineffective.
Cell cultures: All compounds are screened with dissociated hippocampal cultures derived from embryonic day 18 rats as the primary test system. With this preparation, primary neurons are used to test for toxicity as well as neuroprotection in a highly relevant experimental system to epilepsy. In brief, hippocampal tissue are obtained commercially through Brain Bits (Springfield, Ill.) and cultures prepared as previously described by Brewer (Brewer, G. J. Serum-free B27/neurobasal medium supports differentiated growth of neurons from the striatum, substantia nigra, septum, cerebral cortex, cerebellum and dentate gyms, J. Neurosci. Res. 1995, 42, 674-683.). The hippocampal neurons are platted at low density (10,000 cell/well) in a 96-well format and maintained in serum-free medium consisting of Neurobasal Medium supplemented with B27 and GlutaMAX (Gibco). Pre-coated poly-L-lysine coated plates are used because of the preferential adherence and survival of hippocampal neurons on this matrix support.
Carboxyfluorescein (CFDA) was used a vital stain for all cell toxicity and neuroprotection studies. With the use of the CytoFluor fluorimeter, the CFDA assay was employed to assess the viability of neurons. CFDA is a dye that becomes fluorescent upon cell entry and cleavage by cytosolic esterases (Petroski, R. E.; Geller, H. M Selective labeling of embryonic neurons cultures on astrocyte monolayers with 5(6)-carboxyfluorescein diacetate (CFDA). J. Neurosci. Methods 1994, 52, 23-32.). Neuronal specificity is obtained relative to astrocytes because the cleaved dye is extruded extracellularly by glia with time, while dye in neurons remains intracellular. […] To further assess the culture responses, a propidium iodide method was used as previously described (Sarafian, T. A.; Kouyoumjian, S.; Tashkin, D.; Roth, M. D. Synergistic cytotoxicity of 9-tetrahydrocannabianol and butylated hydroxyanisole, Tox. Letters, 2002. 133, 171-179.) to measure the number of dead cells. Propidium iodide becomes fluorescent when binding to the DNA of dead cells. Cultures were treated on day 2 with the test agent and then the two assays were conducted after a […] test period. For all assays, a 96-well format was used. For the screen, log concentration-effect studies were conducted from 10 nM to 1 mM with 8 replications. The duration of the test period was five days. Cultures were given a complete change of medium prior to the initiation of the treatment period.
Potent neuroprotection is the distinguishing characteristic that separates this program's anticonvulsants from all other commercial drugs for epilepsy. The experimental details and the rationale for the implemented assays are essential in differentiating these compounds from that of others. The central objective of all neuroprotective assays was their relevancy to excitotoxicity and oxidative stress related to epilepsy. […]

Test [3] has as its system MES-induced seizure spread. Nature of the test: Maximal Electroshock Seizure (MES) test in rats. Type of test: in vivo. The settings on record: Rat MES, 30 mg/kg, oral, vehicle methylcellulose. As to the method:
(§1) Methods to measure anticonvulsant activity: All tests were conducted by the Anticonvulsant Screening Program (ASP) of the National Institute of Neurological Disease and Stroke at the National Institutes of Health. The Maximal Electroshock Seizure (MES) or Maximal Seizure Pattern Test: The MES is a model for generalized tonic-clonic seizures (Putnam and Merritt, 1937). It is highly reproducible with consistent endpoints. The behavioral and electrographic seizures generated in this model are consistent with the human disorder. This model identifies those compounds which prevent seizure spread. In the MES test, an electrical stimulus of 0.2 s in duration (50 mA in mice and 150 mA in rat at 60 Hz) is delivered via corneal electrodes primed with an electrolyte solution containing an anesthetic agent. Mice are tested at 30 minutes and 4 hours following doses of 30, 100 and 300 mg/kg of test compound. Test compounds are administered intraperitoneally to the mice. Rats are tested at time intervals between 0.25 and 4 hours following a standard oral dose of 30 mg/kg. Abolition of the hindlimb tonic extensor component indicates the test compound's ability to inhibit MES-induced seizure spread.
For orientation: Protection in the maximal electroshock model is a classic sign of anticonvulsant action.

Test [4] relates to 6 Hz corneal stimulation evoked seizures. Kind of test: 6 Hz psychomotor seizure test in mice. The test is classed as in vivo. The settings on record: Mouse 6 Hz, 100 mg/kg, intraperitoneal, vehicle methylcellulose. The procedure: Methods to measure anticonvulsant activity: All tests were conducted by the Anticonvulsant Screening Program (ASP) of the National Institute of Neurological Disease and Stroke at the National Institutes of Health. The 6 Hz Seizure Test: Compounds were further tested in the 6-Hz psychomotor seizure model (Barton et al., 2001). This model is used to detect seizures that may be useful for the treatment of therapy-resistant partial seizures. For this test, an alternative electrical stimulation paradigm is used with a low frequency (6 Hz), long duration (3 seconds) corneal stimulation. The seizure evoked by this low frequency stimulation is characterized by immobility, forelimb clonus, Straub tail and facial automatisms (Barton et al., 2001). Mice are tested from 15 min to 4 hours following an intraperitoneal dose of 100 mg/kg. Abolition of the clonic seizures indicates the ability of a compound to prevent partial or psychomotor seizures.

In test [5] the test system is MES-induced seizure spread. Kind of test: Maximal Electroshock Seizure (MES) test in mice. Type of test: in vivo. Conditions: Mouse MES, intraperitoneal, vehicle methylcellulose. As to the method: as §1

Consider `NS(=O)(=O)NC[C@@H](O)c1ccccc1Cl` [compound III], for which, in test [1], the “effect on glutamate-mediated increase in cell death (propidium iodide)” value is reported as “efficacious”. Besides, the “effect on glutamate-mediated decrease in neuronal viability (CFDA)” value in test [2] is on record as “efficacious”.
As to `NS(=O)(=O)NC[C@@H](O)c1ccccc1Cl` [drawing 54], the “# animals active/# animals tested” value in test [3] (0.25 hr) was 1/4; in test [3] (0.5 hr), 0/4; in test [4] (0.25 hr), 0/4; in test [4] (0.5 hr) it was 1/4; in test [4] (1.0 hr) it was 1/4; in test [4] (2.0 hr), 0/4. Also, the “# animals active/# animals tested” value in test [5] (30 mg/kg, 0.5 hr) was 0/1; in test [5] (100 mg/kg, 0.5 hr), 2/3; in test [5] (300 mg/kg, 0.5 hr), 1/1.
As for `NS(=O)(=O)NCC(O)c1ccccc1F` (stereo not shown) [drawing 55], the “# animals active/# animals tested” value is reported as 0/4 in test [3] (1 hr); 1/4 in test [3] (2 hr); 2/4 in test [3] (4 hr); 0/4 in test [4] (0.25 hr); 1/4 in test [4] (0.5 hr); 1/4 in test [4] (1.0 hr). The “# animals active/# animals tested” value in test [4] (2.0 hr) is on record as 1/4; in test [4] (4.0 hr), 1/4; in test [5] (30 mg/kg, 4 hr) it was 0/1; in test [5] (100 mg/kg, 4 hr), 1/3; in test [5] (300 mg/kg, 4 hr), 1/1.

Source of the values: patent publication US20120302546A1, “NOVEL SULFAMIDES EXHIBITING NEUROPROTECTIVE ACTION AND METHODS FOR USE THEREOF” (FOX CHASE CHEMICAL DIVERSITY CENTER, INC., priority 2010, published 2012).
